Measured values from ChEMBL document CHEMBL1139158, “Prenyloxyphenylpropanoids as novel lead compounds for the selective inhibition of geranylgeranyl transferase I” (Bioorg Med Chem Lett, 2007).
pIC50: −log10 of the molar value.

Experiments:
[1] = organism: Homo sapiens; test: Inhibition of GGTase 1 at 100 uM
[2] = tested on: Protein farnesyltransferase (Homo sapiens); test: Inhibition of FTase at 100 uM
[3] = Inhibition of GGTase 1; design: species or system Homo sapiens

Compound	inhibition [1]	inhibition [2]	pIC50 [3]
CC(C)=CCC/C(C)=C/COc1ccc(C(=O)O)cc1	0%	–	–
COc1cc(/C=C/C(=O)O)ccc1OCC=C(C)C	31%	9.3%	–
CC(C)=CCC/C(C)=C/CC/C(C)=C/COc1ccc(/C=C/C(=O)O)cc1	93.5%	–	4.55
COc1cc(C(=O)O)ccc1OCC=C(C)C	0%	2.4%	–
COc1c(OC/C=C(\C)CCC=C(C)C)ccc2ccc(=O)oc12	34.2%	15.5%	–

Other lines, results leading:

inhibition [1]	inhibition [2]	pIC50 [3]	Compound
3%	5.5%	–	CCOC(=O)/C=C/c1ccc(OC/C=C(\C)CCC=C(C)C)c(OC)c1
83.9%	11%	4.18	COc1cc(/C=C/C(=O)O)ccc1OC/C=C(\C)CC/C=C(\C)CCC=C(C)C
0%	0%	–	COc1cc(C(=O)O)ccc1OC/C=C(\C)CCC=C(C)C
